One test concerns LoVo. As to the kind of experiment: Antiproliferative activity against human LoVo cells. Format: functional, cell-based.
Test [1] in a line: Antiproliferative activity against human QGY7703 cells. The note with it: QGY-7703. Type of test: functional, cell-based.
A short description of test [2]: Inhibition of TNF-alpha-induced NF-kappaB activity in human pNF-kappaB-luc-293 cells. Type of test: cell-based. The following applies: HEK293.
For another test, the system named is RAW264.7. Kind of test: Antiinflammatory activity in mouse RAW264.7 cells assessed as inhibition of LPS-induced NO release. Type of test: functional, cell-based.

≈ marks a conversion by molar mass, not a printed value. A value given as a limit tells only on which side of the number the result lay.

In the case of `CC(C)c1ccc(O)c(CC[C@@H]2[C@@](C)(O)CCC[C@@]2(C)C(=O)O)c1` [ABIESADINE B], the 50% inhibitory concentration (IC50) (usually the point on the concentration scale where inhibition reaches its midpoint) in the test on LoVo was above 25 µg/mL; in test [1], above 25 µg/mL; in test [2] it was above 100 µg/mL; in the test with RAW264.7, above 100 µg/mL.

Turning to `CC(C)c1ccc2c(c1)C(=O)C[C@H]1[C@](C)(C(=O)O)CCC[C@]21C`, the IC50 in the test with LoVo was above 25 µg/mL; in test [1], 10.2 µg/mL (≈ 32.4 µM); in test [2], above 100 µg/mL; in the test with RAW264.7, above 100 µg/mL.

With `CC(C)(O)c1ccc2c(c1)CC[C@H]1[C@](C)(C(=O)O)CCC[C@]21C`, the IC50 is above 25 µg/mL with LoVo, above 25 µg/mL in test [1], above 100 µg/mL in test [2] and 76.4 µg/mL (≈ 241 µM) in the test with RAW264.7.

In the case of `COC(C)(C)c1ccc2c(c1)[C@H](O)C[C@H]1[C@](C)(COC(=O)CCC(=O)O)CCC[C@]21C` [ABIESADINE M], the IC50 in the test on LoVo was above 25 µg/mL; in test [1], above 25 µg/mL; in test [2], above 100 µg/mL; in the test with RAW264.7 it was above 100 µg/mL.

For `CC(C)c1ccc2c(c1)CC[C@H]1[C@](C)(COC(=O)CCC(=O)O)CCC[C@]21C`, the half-maximal inhibitory concentration (IC50) in the test with LoVo was above 25 µg/mL; in test [1] it was above 25 µg/mL; in test [2] it was above 100 µg/mL; in the test on RAW264.7 it was above 100 µg/mL.

With `C=C[C@@](C)(O)CCC1C(=C)CC[C@H]2[C@](C)(COC(=O)CCC(=O)O)CCC[C@]12C` (some centres undefined) [ABIESADINE X], the IC50 in the test on LoVo was above 25 µg/mL; in test [1], above 25 µg/mL; in test [2], above 100 µg/mL; with RAW264.7, above 100 µg/mL.

Take `C=C[C@@](C)(O)[C@H]1CC2[C@@]3(C)CCCC(C)(C)C3CC[C@@]2(C)O1` (some centres undefined): the IC50 was determined as 23.1 µg/mL (≈ 75.4 µM) in the test on LoVo, 15.7 µg/mL (≈ 51.2 µM) in test [1], 8.7 µg/mL (≈ 28.4 µM) in test [2] and 21.6 µg/mL (≈ 70.5 µM) in the test on RAW264.7.

For the compound `CC(C)(O)c1ccc2c(c1)CC[C@H]1[C@](C)(COC(=O)CCC(=O)O)CCC[C@]21C` [ABIESADINE I], the 50% inhibitory concentration (IC50) is above 25 µg/mL in the test on LoVo, above 25 µg/mL in test [1], above 100 µg/mL in test [2] and above 100 µg/mL in the test with RAW264.7.

Consider `C=C[C@@](C)(O)CCC1C(=C)CC[C@H]2[C@](C)(CO)CCC[C@]12C` (some centres undefined) [TORREFEROL], for which the 50% inhibitory concentration (IC50) with LoVo was 24.3 µg/mL (≈ 79.3 µM); in test [1] it was above 25 µg/mL; in test [2] it was above 100 µg/mL; with RAW264.7, above 100 µg/mL.

Turning to `C=C[C@@](C)(O)CC[C@H]1C(=C)CC[C@H]2C(C)(C)CCC[C@]12C` [MANOOL], the concentration for half-maximal inhibition (IC50) was above 25 µg/mL in the test on LoVo, above 25 µg/mL in test [1], above 100 µg/mL in test [2] and 11 µg/mL (≈ 37.9 µM) with RAW264.7.

Regarding `CC(C)(O)c1ccc2c(c1)C(=O)C[C@H]1[C@](C)(C(=O)O)CCC[C@]21C`, the half-maximal inhibitory concentration (IC50) was above 25 µg/mL with LoVo, above 25 µg/mL in test [1], above 100 µg/mL in test [2] and 44 µg/mL (≈ 133 µM) in the test with RAW264.7.
